Columns and labels:
Rattus norvegicus [1] = assay: Sleeping time was determined in rats at 30 mg/kg intraperitoneal dose; assay type: functional
Rattus norvegicus [2] = assay: Effective dose was measured in rats using maximal electroshock seizure test(ip); showed no protection up to 120 mg/kg (i.p. dose); assay type: functional, organism-based; parameters: dose 120 mg/kg
Rattus norvegicus [3] = assay: % protection was measured in rats using subcutaneous pentylenetetrazole seizure test; assay type: functional; parameters: concentration or dose not given beside the values
Rattus norvegicus [4] = species: Rattus norvegicus; assay: % protection was measured in rats using maximal electroshock seizure test; assay type: functional
Rattus norvegicus [5] = assay: Effective dose was measured in rats using maximal electroshock seizure test(ip); showed no protection up to 100 mg/kg (i.p. dose); assay type: functional, organism-based; parameters: dose 100 mg/kg
[6] = Tested for therapeutic index of compound (LD50/MES ED50); conditions: rat; read-out: TI
[7] = Acute toxicity was measured in rats using maximal electroshock seizure test; conditions: rat, in vivo
Rattus norvegicus [8] = species: Rattus norvegicus; assay: Effective dose was measured in rats using maximal electroshock seizure test; assay type: functional
Rattus norvegicus [9] = assay: % protection was measured in rats using subcutaneous pentylenetetrazole seizure test; p<0.05; assay type: functional
Rattus norvegicus [10] = species: Rattus norvegicus; assay: The activity was measured by using barbiturate hypnosis potentiation effect test; assay type: functional
Rattus norvegicus [11] = assay: Effective dose was measured in rats using subcutaneous pentylenetetrazole seizure test; assay type: functional; conditions: sc
Rattus norvegicus [12] = assay: Sleeping time was determined in rats after administration of compound; non-significant; assay type: functional
Rattus norvegicus [13] = species: Rattus norvegicus; assay: % protection was measured in rats using maximal electroshock seizure test; p<0.01; assay type: functional
Rattus norvegicus [14] = assay: Sleeping time was determined in rats after administration of compound; NS non-significant; assay type: functional
Rattus norvegicus [15] = assay: Sleeping time was determined in rats after administration of compound; p<0.05; assay type: functional
Rattus norvegicus [16] = species: Rattus norvegicus; assay: % protection was measured in rats using maximal electroshock seizure test; p<0.05; assay type: functional

Q: With `CCCC(C)C1(CC)C(=O)N=C([O-])NC1=O.[Na+]` (stereo unspecified) [PENTOBARBITAL SODIUM] as the molecule, how does the Sleeping time (Rattus norvegicus [1]) read?
A: Its Sleeping time is 65.25 min.

Q: Which ED50 (Rattus norvegicus [2]) does the source give for `Cc1ccccc1Nc1ns/c(=N\C(S)=N\c2ccc(Cl)cc2)n1-c1ccccc1C` here?
A: Its ED50 is “no protection up to 100 mg/kg”.

Q: What about the Protection (Rattus norvegicus [3]) of the same molecule?
A: Its Protection is 0%.

Q: What about the Protection (Rattus norvegicus [4]) of the same molecule?
A: The Protection was 0%.

Q: And the ED50 (Rattus norvegicus [5])?
A: The ED50 was “no protection up to 100 mg/kg”.

Q: Which selectivity ratio [6] does the source give for `S=C(/N=c1\snc(Nc2ccc(Cl)cc2)n1-c1ccc(Cl)cc1)Nc1ccc(Cl)cc1` here?
A: Its selectivity ratio is 11.7.

Q: And the LD50 [7]?
A: Its LD50 is 117 mg/kg.

Q: What about the ED50 (Rattus norvegicus [8]) of the same molecule?
A: The ED50 was 10 mg/kg.

Q: What about the Protection (Rattus norvegicus [9]) of the same molecule?
A: The Protection was 75%.

Q: And the Hypnosis potentiation (Rattus norvegicus [10])?
A: The Hypnosis potentiation was 11.58%.

Q: What about the ED50 (Rattus norvegicus [11]) of the same molecule?
A: The ED50 was 22.1 mg/kg.

Q: What about the Sleeping time (Rattus norvegicus [12]) of the same molecule?
A: The Sleeping time was 72.81 min.

Q: And the Protection (Rattus norvegicus [13])?
A: The Protection was 87.5%.

Q: What does the source list for `COc1ccc(Nc2ns/c(=N\C(S)=N\c3ccc(Cl)cc3)n2-c2ccc(OC)cc2)cc1`?
A: Sleeping time (Rattus norvegicus [14]): 67.3 min; Protection (Rattus norvegicus [3]): 0%; selectivity ratio [6]: 10.3; LD50 [7]: 210 mg/kg; ED50 (Rattus norvegicus [8]): 20.3 mg/kg; Hypnosis potentiation (Rattus norvegicus [10]): 3.14%; Protection (Rattus norvegicus [4]): 50%; ED50 (Rattus norvegicus [11]): 150 mg/kg

Q: Which ED50 (Rattus norvegicus [2]) does the source give for `COc1cccc(Nc2ns/c(=N\C(S)=N\c3ccc(Cl)cc3)n2-c2cccc(OC)c2)c1` here?
A: The ED50 was “no protection up to 100 mg/kg”.

Q: What about the Protection (Rattus norvegicus [3]) of the same molecule?
A: Its Protection is 0%.

Q: And the Protection (Rattus norvegicus [4])?
A: Its Protection is 0%.

Q: What about the ED50 (Rattus norvegicus [5]) of the same molecule?
A: Its ED50 is “no protection up to 100 mg/kg”.

Q: What does the source list for `O=C1NC(=O)C(c2ccccc2)(c2ccccc2)N1` [PHENYTOIN]?
A: Protection (Rattus norvegicus [3]): 37.5%; LD50 [7]: 65.5 mg/kg; ED50 (Rattus norvegicus [8]): 9.5 mg/kg; Sleeping time (Rattus norvegicus [15]): 100.5 min; Hypnosis potentiation (Rattus norvegicus [10]): 54.02%; ED50 (Rattus norvegicus [11]): 100 mg/kg; Protection (Rattus norvegicus [16]): 75%

Q: With `Cc1ccc(Nc2ns/c(=N\C(S)=N\c3ccc(Cl)cc3)n2-c2ccc(C)cc2)cc1` as the molecule, how does the ED50 (Rattus norvegicus [2]) read?
A: Its ED50 is “no protection up to 120 mg/kg”.

Q: And the Protection (Rattus norvegicus [3])?
A: The Protection was 0%.

Q: What about the selectivity ratio [6] of the same molecule?
A: Its selectivity ratio is 6.42.

Q: What about the LD50 [7] of the same molecule?
A: The LD50 was 300 mg/kg.

Q: And the ED50 (Rattus norvegicus [8])?
A: The ED50 was 46.7 mg/kg.

Q: And the Hypnosis potentiation (Rattus norvegicus [10])?
A: The Hypnosis potentiation was 15.63%.

Q: What about the Protection (Rattus norvegicus [4]) of the same molecule?
A: Its Protection is 50%.

Q: And the Sleeping time (Rattus norvegicus [12])?
A: The Sleeping time was 75.45 min.

Q: With `COc1ccccc1Nc1ns/c(=N\C(S)=N\c2ccc(Cl)cc2)n1-c1ccccc1OC` as the molecule, how does the ED50 (Rattus norvegicus [2]) read?
A: The ED50 was “no protection up to 100 mg/kg”.

Q: And the Protection (Rattus norvegicus [3])?
A: Its Protection is 0%.

Q: And the Protection (Rattus norvegicus [4])?
A: The Protection was 0%.

Q: What about the ED50 (Rattus norvegicus [5]) of the same molecule?
A: Its ED50 is “no protection up to 100 mg/kg”.

Q: Which Sleeping time (Rattus norvegicus [14]) does the source give for `S=C(/N=c1\snc(Nc2ccccc2Cl)n1-c1ccccc1Cl)Nc1ccc(Cl)cc1` here?
A: Its Sleeping time is 78.68 min.

Q: What about the Protection (Rattus norvegicus [3]) of the same molecule?
A: Its Protection is 0%.

Q: What about the selectivity ratio [6] of the same molecule?
A: Its selectivity ratio is 14.6.

Q: And the LD50 [7]?
A: Its LD50 is 175 mg/kg.

Q: And the ED50 (Rattus norvegicus [8])?
A: The ED50 was 12 mg/kg.

Q: What about the Hypnosis potentiation (Rattus norvegicus [10]) of the same molecule?
A: Its Hypnosis potentiation is 20.58%.

Q: What about the ED50 (Rattus norvegicus [11]) of the same molecule?
A: The ED50 was 35.1 mg/kg.

Q: And the Protection (Rattus norvegicus [16])?
A: Its Protection is 75%.

Q: For `Cc1cccc(Nc2ns/c(=N\C(S)=N\c3ccc(Cl)cc3)n2-c2cccc(C)c2)c1`, which ED50 (Rattus norvegicus [2]) is on record?
A: Its ED50 is “no protection up to 100 mg/kg”.

Q: What about the Protection (Rattus norvegicus [3]) of the same molecule?
A: Its Protection is 0%.

Q: And the Protection (Rattus norvegicus [4])?
A: The Protection was 0%.

Q: And the ED50 (Rattus norvegicus [5])?
A: The ED50 was “no protection up to 100 mg/kg”.

Q: Which results are given for `S=C(/N=c1\snc(Nc2cccc(Cl)c2)n1-c1cccc(Cl)c1)Nc1ccc(Cl)cc1`?
A: Protection (Rattus norvegicus [3]): 75%; selectivity ratio [6]: 6.85; LD50 [7]: 120 mg/kg; ED50 (Rattus norvegicus [8]): 17.5 mg/kg; Hypnosis potentiation (Rattus norvegicus [10]): 5.97%; ED50 (Rattus norvegicus [11]): 26.2 mg/kg; Sleeping time (Rattus norvegicus [12]): 69.15 min; Protection (Rattus norvegicus [16]): 75%

Q: With `S=C(/N=c1\snc(Nc2ccccc2)n1-c1ccccc1)Nc1ccc(Cl)cc1` as the molecule, how does the Protection (Rattus norvegicus [3]) read?
A: The Protection was 0%.

Q: What about the selectivity ratio [6] of the same molecule?
A: Its selectivity ratio is 3.26.

Q: What about the LD50 [7] of the same molecule?
A: The LD50 was 250 mg/kg.

Q: What about the ED50 (Rattus norvegicus [8]) of the same molecule?
A: The ED50 was 76.5 mg/kg.

Q: What about the Hypnosis potentiation (Rattus norvegicus [10]) of the same molecule?
A: Its Hypnosis potentiation is 4.98%.

Q: And the Protection (Rattus norvegicus [4])?
A: Its Protection is 25%.

Q: What about the Sleeping time (Rattus norvegicus [12]) of the same molecule?
A: Its Sleeping time is 68.5 min.

Reference: ChEMBL document CHEMBL1127205, “Synthesis and anticonvulsant activity of 3-arylamino-4-aryl-5-(N-4-chlorophenylthiocarbamido)-1,2,4-thiadiazoles” (Bioorg Med Chem Lett, 1993)
